Test results taken from US20180155344A1, “TRICYCLIC PIPERIDINE COMPOUNDS” (ACTELION PHARMACEUTICALS LTD, priority 2015, published 2018).

molecular target: T1, human TPH1 (Homo sapiens, UniProt P17752); test: biochemical
T1 sequence (P17752 1-444): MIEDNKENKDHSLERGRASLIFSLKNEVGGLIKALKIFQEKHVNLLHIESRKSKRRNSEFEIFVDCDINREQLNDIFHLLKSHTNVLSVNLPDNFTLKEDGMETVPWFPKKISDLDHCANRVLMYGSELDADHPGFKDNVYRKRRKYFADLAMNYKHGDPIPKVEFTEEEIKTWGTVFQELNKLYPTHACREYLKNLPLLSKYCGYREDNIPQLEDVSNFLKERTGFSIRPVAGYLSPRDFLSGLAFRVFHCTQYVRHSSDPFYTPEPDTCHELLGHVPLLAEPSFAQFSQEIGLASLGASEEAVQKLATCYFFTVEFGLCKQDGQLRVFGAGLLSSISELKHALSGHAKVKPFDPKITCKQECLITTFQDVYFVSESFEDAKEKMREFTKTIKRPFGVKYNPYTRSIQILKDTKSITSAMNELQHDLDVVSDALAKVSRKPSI
Procedure, shortened: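 Inhibition is derived from 5-hydroxy-L-tryptophan fluorescence (540 nm emission, 300 nm excitation) after perchloric acid stop, relative to DMSO vehicle. Recombinant full-length human enzyme (40-80 nM) reacts with 40 μM tryptophan plus 100 μM methyltetrahydropterin, pH 7.6 Tris/DTT/catalase, 15° C, 60 min.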

Compound | IC50
Cn1nc(OCC(=O)N2CCc3nc4cc(C(F)(F)F)ccn4c3C2c2ccccc2F)c(Cl)c1C(F)(F)F (centres unmarked) [Example 3.35.3, 2-((4-chloro-1-methyl-5-(trifluoromethyl)-1H-pyrazol-3-yl)oxy)-1-(1-(2-fluorophenyl)-7-(trifluoromethyl)-3,4-dihydroimidazo[1,2-a:5,4-c′]dipyridin-2(1H)-yl)ethan-1-one] | 338 nM
O=C(COc1ccc(CN2CCOCC2)cc1Cl)N1CCc2nc3cc(C(F)(F)F)ccn3c2C1c1cccnc1 (centres unmarked) [Example 3.36.2, 2-(2-chloro-4-(morpholinomethyl)phenoxy)-1-(1-(pyridin-3-yl)-7-(trifluoromethyl)-3,4-dihydroimidazo[1,2-a:5,4-c′]dipyridin-2(1H)-yl)ethan-1-one] | 488 nM
O=C(COc1ccc(CN2CCOCC2)cc1Cl)N1CCc2nc3cc(C(F)(F)F)ccn3c2C1c1ccc(Cl)nc1 (centres unmarked) [Example 3.37.1, 2-(2-chloro-4-(morpholinomethyl)phenoxy)-1-(1-(6-chloropyridin-3-yl)-7-(trifluoromethyl)-3,4-dihydroimidazo[1,2-a:5,4-c′]dipyridin-2(1H)-yl)ethan-1-one] | 50 nM
Cc1ccc(C2c3c(nc4cc(C(F)(F)F)ccn34)CCN2C(=O)COc2ccc(CN3CCOCC3)cc2Cl)cn1 (centres unmarked) [Example 3.38.2, 2-(2-chloro-4-(morpholinomethyl)phenoxy)-1-(1-(6-methylpyridin-3-yl)-7-(trifluoromethyl)-3,4-dihydroimidazo[1,2-a:5,4-c′]dipyridin-2(1H)-yl)ethan-1-one] | 92 nM
COc1cc(C)c(C2c3c(nc4cc(C(F)(F)F)ccn34)CCN2C(=O)COc2ccc(CN3CCOCC3)cc2Cl)cn1 (centres unmarked) [Example 3.39.1, 2-(2-chloro-4-(morpholinomethyl)phenoxy)-1-(1-(6-methoxy-4-methylpyridin-3-yl)-7-(trifluoromethyl)-3,4-dihydroimidazo[1,2-a:5,4-c′]dipyridin-2(1H)-yl)ethan-1-one] | 46 nM
Cc1cc(C2c3c(nc4cc(C(F)(F)F)ccn34)CCN2C(=O)COc2ccc3ccccc3c2)n(C)n1 (centres unmarked) [Example 3.40.1, 1-(1-(1,3-dimethyl-1H-pyrazol-5-yl)-7-(trifluoromethyl)-3,4-dihydroimidazo[1,2-a:5,4-c′]dipyridin-2(1H)-yl)-2-(naphthalen-2-yloxy)ethan-1-one] | 432 nM
O=C(COc1ccc2ccccc2c1)N1CCc2nc3cc(C(F)(F)F)ccn3c2C1c1cnn(-c2ccccc2)c1 (centres unmarked) [Example 3.41.1, 2-(naphthalen-2-yloxy)-1-(1-(1-phenyl-1H-pyrazol-4-yl)-7-(trifluoromethyl)-3,4-dihydroimidazo[1,2-a:5,4-c′]dipyridin-2(1H)-yl)ethan-1-one] | 328 nM
O=C(COc1ccc(CN2CCOCC2)cc1Cl)N1CCc2nc3cc(C(F)(F)F)ccn3c2C1c1cnn(-c2ccccc2)c1 (centres unmarked) [Example 3.41.2, 2-(2-chloro-4-(morpholinomethyl)phenoxy)-1-(1-(1-phenyl-1H-pyrazol-4-yl)-7-(trifluoromethyl)-3,4-dihydroimidazo[1,2-a:5,4-c′]dipyridin-2(1H)-yl)ethan-1-one] | 24 nM
Cc1c(CN2CCOCC2)ccc(OCC(=O)N2CCc3nc4cc(C(F)(F)F)ccn4c3C2c2cnn(-c3ccccc3)c2)c1C (centres unmarked) [Example 3.41.3, 2-(2,3-dimethyl-4-(morpholinomethyl)phenoxy)-1-(1-(1-phenyl-1H-pyrazol-4-yl)-7-(trifluoromethyl)-3,4-dihydroimidazo[1,2-a:5,4-c′]dipyridin-2(1H)-yl)ethan-1-one] | 68 nM
Cc1csc(C2c3c(nc4cc(C(F)(F)F)ccn34)CCN2C(=O)COc2ccc3ccccc3c2)n1 (centres unmarked) [Example 3.42.1, 1-(1-(4-methylthiazol-2-yl)-7-(trifluoromethyl)-3,4-dihydroimidazo[1,2-a:5,4-c′]dipyridin-2(1H)-yl)-2-(naphthalen-2-yloxy)ethan-1-one] | 260 nM
O=C(COc1ccc2ccccc2c1)N1CCc2nc3cc(C(F)(F)F)ccn3c2C1c1ncc2ccccn12 (centres unmarked) [Example 3.43.2, 1-(1-(imidazo[1,5-a]pyridin-3-yl)-7-(trifluoromethyl)-3,4-dihydroimidazo[1,2-a:5,4-c′]dipyridin-2(1H)-yl)-2-(naphthalen-2-yloxy)ethan-1-one] | 209 nM
O=C(COc1ccc2ccccc2c1)N1CCc2nc3cc(C(F)(F)F)ccn3c2C1c1nc2ccccc2s1 (centres unmarked) [Example 3.44.1, 1-(1-(benzo[d]thiazol-2-yl)-7-(trifluoromethyl)-3,4-dihydroimidazo[1,2-a:5,4-c′]dipyridin-2(1H)-yl)-2-(naphthalen-2-yloxy)ethan-1-one] | 76 nM
O=C(COc1ccc(CN2CCOCC2)cc1Cl)N1CCc2nc3cc(C(F)(F)F)ccn3c2C1c1nc2ccccc2s1 (centres unmarked) [Example 3.44.2, 1-(1-(benzo[d]thiazol-2-yl)-7-(trifluoromethyl)-3,4-dihydroimidazo[1,2-a:5,4-c′]dipyridin-2(1H)-yl)-2-(2-chloro-4-(morpholinomethyl)phenoxy)ethan-1-one] | 23 nM

The next lines start with the values.

IC50 | Compound
17 nM | O=C(COc1ccc2ccccc2c1)N1CCc2nc3cc(C(F)(F)F)ccn3c2C1c1ccccc1F (centres unmarked) [Example 3.35.1, 1-(1-(2-fluorophenyl)-7-(trifluoromethyl)-3,4-dihydroimidazo[1,2-a:5,4-c′]dipyridin-2(1H)-yl)-2-(naphthalen-2-yloxy)ethan-1-one]
16 nM | O=C(COc1ccc(CN2CCOCC2)cc1Cl)N1CCc2nc3cc(C(F)(F)F)ccn3c2C1c1ccccc1F (centres unmarked) [Example 3.35.2, 2-(2-chloro-4-(morpholinomethyl)phenoxy)-1-(1-(2-fluorophenyl)-7-(trifluoromethyl)-3,4-dihydroimidazo[1,2-a:5,4-c′]dipyridin-2(1H)-yl)ethan-1-one]
208 nM | O=C(COc1ccc2ccccc2c1)N1CCc2nc3cc(C(F)(F)F)ccn3c2C1c1cccnc1 (centres unmarked) [Example 3.36.1, 2-(naphthalen-2-yloxy)-1-(1-(pyridin-3-yl)-7-(trifluoromethyl)-3,4-dihydroimidazo[1,2-a:5,4-c′]dipyridin-2(1H)-yl)ethan-1-one]
57 nM | O=C(COc1ccc2ccccc2c1)N1CCc2nc3cc(C(F)(F)F)ccn3c2C1c1ccc(Cl)nc1 (centres unmarked) [Example 3.37.2, 1-(1-(6-chloropyridin-3-yl)-7-(trifluoromethyl)-3,4-dihydroimidazo[1,2-a:5,4-c′]dipyridin-2(1H)-yl)-2-(naphthalen-2-yloxy)ethan-1-one]
26 nM | Cc1ccc(C2c3c(nc4cc(C(F)(F)F)ccn34)CCN2C(=O)COc2ccc3ccccc3c2)cn1 (centres unmarked) [Example 3.38.1, 1-(1-(6-methylpyridin-3-yl)-7-(trifluoromethyl)-3,4-dihydroimidazo[1,2-a:5,4-c′]dipyridin-2(1H)-yl)-2-(naphthalen-2-yloxy)ethan-1-one]
427 nM | Cc1csc(C2c3c(nc4cc(C(F)(F)F)ccn34)CCN2C(=O)COc2ccc(CN3CCOCC3)cc2Cl)n1 (centres unmarked) [Example 3.42.2, 2-(2-chloro-4-(morpholinomethyl)phenoxy)-1-(1-(4-methylthiazol-2-yl)-7-(trifluoromethyl)-3,4-dihydroimidazo[1,2-a:5,4-c′]dipyridin-2(1H)-yl)ethan-1-one]
130 nM | O=C(COc1ccc(CN2CCOCC2)cc1Cl)N1CCc2nc3cc(C(F)(F)F)ccn3c2C1c1ncc2ccccn12 (centres unmarked) [Example 3.43.1, 2-(2-chloro-4-(morpholinomethyl)phenoxy)-1-(1-(imidazo[1,5-a]pyridin-3-yl)-7-(trifluoromethyl)-3,4-dihydroimidazo[1,2-a:5,4-c′]dipyridin-2(1H)-yl)ethan-1-one]
